The text below walks through data of publication PMC4970318 (Journal of molecular biology, 2014).

The target in assay [1] is M3P6m (I71V mutant of M3P6) (Homo sapiens, UniProt Q5TCQ9, I1085V). The class given is binding.
The next assay addresses M3P6 (MAGI-3 PDZ6) (Homo sapiens, UniProt Q5TCQ9). The class given is binding. To be noted: for selectivity for M3P6 over N2P2: ratio of Ki values of Table 1; for shift in selectivity towards M3P6: relative to the native peptide, M3P6 vs N2P2.
Another assay addresses N2P2 (NHERF-2 PDZ2) (Homo sapiens, UniProt Q15599). The assay is described as follows: biochemical.

Each structure is given as a SMILES string. Peptide text beside a SMILES is read from it. * marks the point of attachment. FITC = O=C1OC2(c3ccc(O)cc3Oc3cc(O)ccc32)c2ccc(NC(=S)*)cc21; Ahx = NCCCCCC(=O)O

Sequence of M3P6 (MAGI-3 PDZ6) (Q5TCQ9 1040-1149 isoform Q5TCQ9-2): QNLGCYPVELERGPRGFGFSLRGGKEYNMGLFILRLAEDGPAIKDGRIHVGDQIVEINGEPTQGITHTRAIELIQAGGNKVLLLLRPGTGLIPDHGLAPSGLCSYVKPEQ
Sequence of M3P6m (I71V mutant of M3P6) (Q5TCQ9 1040-1149 isoform Q5TCQ9-2 I1110V): as the sequence (Q5TCQ9 1040-1149 isoform Q5TCQ9-2) above, with I71V counted along it
Sequence of N2P2 (NHERF-2 PDZ2) (Q15599 143-280): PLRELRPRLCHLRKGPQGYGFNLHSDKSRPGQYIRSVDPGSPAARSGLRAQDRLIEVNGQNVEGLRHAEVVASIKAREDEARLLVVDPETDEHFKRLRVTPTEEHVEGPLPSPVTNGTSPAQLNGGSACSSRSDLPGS

For the molecule `CC(C)[C@H](NC(=O)[C@@H](NC(=O)[C@@H](NC(=O)[C@H](C)NC(=O)[C@H](Cc1ccccc1)NC(=O)[C@@H](N)CC(=O)O)[C@@H](C)O)[C@@H](C)O)C(=O)O` [CAT, DFATTV] (H-DFATTV-OH), the Ki in assay [1] is 351 ± 17.9 µM.

`CC(C)[C@H](NC(=O)[C@H](Cc1c[nH]c2ccccc12)NC(=O)[C@@H](NC(=O)[C@H](CC(=O)O)NC(=O)[C@H](Cc1ccccc1)NC(=O)CN)[C@@H](C)O)C(=O)O` [RD3, GFDTWV] (H-GFDTWV-OH) displayed a Ki at M3P6 (MAGI-3 PDZ6) of 6.8 ± 1.5 µM.

Take `CC(C)[C@H](NC(=O)[C@H](Cc1c[nH]c2ccccc12)NC(=O)[C@@H](NC(=O)[C@H](CCC(=O)O)NC(=O)[C@H](Cc1ccccc1)NC(=O)CN)[C@@H](C)O)C(=O)O` [RD2, GFETWV] (H-GFETWV-OH): at M3P6 (MAGI-3 PDZ6), affinity was put at a Ki of 2.7 ± 0.4 µM, the “selectivity for M3P6 over N2P2” value amounted to 4.6 fold and the “shift in selectivity towards M3P6” value was determined as 8 fold.

With `C[C@@H](O)[C@H](N)C(=O)NCC(=O)N[C@@H](CCC(=O)O)C(=O)N[C@H](C(=O)N[C@H](C(=O)N[C@@H](Cc1ccccc1)C(=O)O)[C@@H](C)O)[C@@H](C)O` [FD1, TGETTF] (H-TGETTF-OH), the figures for the inhibitory constant (Ki) (on M3P6 (MAGI-3 PDZ6); in assay [1]) were 600 ± 300 µM and 151 ± 15.9 µM, respectively.

For `CC(C)[C@H](NC(=O)[C@H](CCCNC(=N)N)NC(=O)[C@@H](NC(=O)[C@H](CO)NC(=O)[C@H](Cc1ccccc1)NC(=O)[C@@H](N)CC(=O)O)[C@@H](C)O)C(=O)O` [CSR, DFSTRV] (H-DFSTRV-OH), the Ki in assay [1] came out at 510 ± 51.4 µM.

On M3P6 (MAGI-3 PDZ6), `C[C@@H](O)[C@H](NC(=O)[C@H](CO)NC(=O)CNC(=O)[C@@H](N)CO)C(=O)N[C@@H](Cc1c[nH]cn1)C(=O)N[C@@H](Cc1ccccc1)C(=O)O` [FD3, SGSTHF] (H-SGSTHF-OH) gave a Ki of over 1000 µM.

`CSCC[C@H](NC(=O)[C@@H](N)CC(C)C)C(=O)N[C@@H](CC(=O)O)C(=O)N[C@@H](CO)C(=O)N[C@H](C(=O)N[C@@H](CC(C)C)C(=O)O)[C@@H](C)O` [LPA2 6-mer, LMDSTL, reference compound] (H-LMDSTL-OH): the Ki came out at 47.4 ± 2.6 µM at M3P6 (MAGI-3 PDZ6) and 67.7 ± 5.4 µM in assay [1].

As to `CC(C)[C@H](NC(=O)[C@H](Cc1c[nH]c2ccccc12)NC(=O)[C@@H](NC(=O)[C@H](CCC(=O)O)NC(=O)[C@H](Cc1ccccc1)NC(=O)[C@@H](N)CC(=O)O)[C@@H](C)O)C(=O)O` [RD1, DFETWV] (H-DFETWV-OH), at M3P6 (MAGI-3 PDZ6), the affinity corresponds to a Ki of 1.8 ± 0.5 µM, the “selectivity for M3P6 over N2P2” value is given as 3 fold and the “shift in selectivity towards M3P6” value came to 5 fold.

As for `CC(C)[C@H](NC(=O)[C@H](CCCNC(=N)N)NC(=O)[C@@H](NC(=O)[C@H](C)NC(=O)[C@H](Cc1ccccc1)NC(=O)[C@@H](N)CC(=O)O)[C@@H](C)O)C(=O)O` [CAR, DFATRV] (H-DFATRV-OH), affinity in assay [1] was put at a Ki of 285 ± 24.5 µM.

In the case of `CC(C)[C@H](NC(=O)[C@@H](NC(=O)[C@@H](NC(=O)[C@H](CO)NC(=O)[C@H](Cc1ccccc1)NC(=O)[C@@H](N)CC(=O)O)[C@@H](C)O)[C@@H](C)O)C(=O)O` [CST, DFSTTV] (H-DFSTTV-OH), the affinity in assay [1] corresponds to a Ki of 242 ± 17.6 µM.

Regarding `C[C@@H](O)[C@H](NC(=O)[C@H](CO)NC(=O)CNC(=O)[C@H](CO)NC(=O)CNC(=O)CNC(=O)CCCCCNC(=S)Nc1ccc2c(c1)C(=O)OC21c2ccc(O)cc2Oc2cc(O)ccc21)C(=O)N[C@@H](CCCNC(=N)N)C(=O)N[C@@H](Cc1ccccc1)C(=O)O` [FD2 8-mer, FITC-Ahx-GGSGSTRF] ({FITC-Ahx}-GGSGSTRF-OH), the Kd at N2P2 (NHERF-2 PDZ2) was 3.6 ± 0.5 µM.

As a reminder, the Ki is the dissociation constant of the complex between target and ligand, obtained from inhibition or displacement. A low value points to a stronger hold on the target. Broadly, the Kd is the constant that tells how readily two partners part at equilibrium. Read a low Kd as a tighter complex.
